In US20140155376A1, “PYRROLOPYRAZINE KINASE INHIBITORS” (Hoffmann-La Roche Inc., priority 2010, published 2014):

Molecular target: T1, JAK3 (recombinant human kinase domain; h-jak3(810-1124)) (Homo sapiens, UniProt P52333)
T1 construct: h-jak3(810- 1124)-sf9-c; made in house; host or cells: Sf9 insect cells
Test: Determination of IC50 of Janus Kinase (JAK) inhibition: JAK3, radioactive end-point assay with 33P-ATP
Format: biochemical
Settings: JAK3 kinase domain; ATP 1.5 uM, peptide 50 uM, 20 minutes, room temperature, 10% DMSO; read-out: Ic50 h-jak3(810-1124)-sf9-c:no additive

T1 sequence (P52333 810-1124): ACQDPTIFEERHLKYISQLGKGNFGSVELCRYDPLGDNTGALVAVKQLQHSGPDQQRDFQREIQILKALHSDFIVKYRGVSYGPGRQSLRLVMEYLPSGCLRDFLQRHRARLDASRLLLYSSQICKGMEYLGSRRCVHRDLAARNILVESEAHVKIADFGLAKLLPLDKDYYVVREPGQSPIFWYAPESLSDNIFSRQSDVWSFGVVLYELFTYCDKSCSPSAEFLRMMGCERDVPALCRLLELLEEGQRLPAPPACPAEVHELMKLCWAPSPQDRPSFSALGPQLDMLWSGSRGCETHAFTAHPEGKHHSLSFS

Row | Compound | IC50 [µM]
1 | Cc1cccc(-n2cnc(-c3cnc4[nH]cc(C(=O)N[C@@H](C)C(C)(C)C)c4n3)c2)c1 [Example I-150, 2-(1-m-Tolyl-1H-imidazol-4-yl)-5H-pyrrolo[2,3-b]pyrazine-7-carboxylic acid ((S)-1,2,2-trimethyl-propyl)-amide] | 0.00512
2 | C[C@H](NC(=O)c1c[nH]c2ncc(-c3ccc(C(=O)Nc4ccc5c(c4)CCCC5)s3)nc12)C(C)(C)C [Example I-200, 2-[5-(5,6,7,8-Tetrahydro-naphthalen-2-ylcarbamoyl)-thiophen-2-yl]-5H-pyrrolo[2,3-b]pyrazine-7-carboxylic acid ((S)-1,2,2-trimethyl-propyl)-amide] | 0.00073
3 | CC(=O)NC1Cc2ccc(Oc3cnc4[nH]cc(C(=O)NC(C)C)c4n3)cc2C1 (stereo not drawn) [Example I-300, 2-(2-Acetylamino-indan-5-yloxy)-5H-pyrrolo[2,3-b]pyrazine-7-carboxylic acid isopropylamide] | 0.199
4 | C[C@H](NC(=O)c1c[nH]c2ncc(-c3cn(-c4cc(Cl)ccc4F)cn3)nc12)C(C)(C)C [Example I-147, 2-[1-(5-Chloro-2-fluoro-phenyl)-1H-imidazol-4-yl]-5H-pyrrolo[2,3-b]pyrazine-7-carboxylic acid ((S)-1,2,2-trimethyl-propyl)-amide] | 0.00246
5 | C[C@H](NC(=O)c1c[nH]c2ncc(-c3ccc(C(=O)N4CCC4)s3)nc12)C(C)(C)C [Example I-180, 2-[5-(Azetidine-1-carbonyl)-thiophen-2-yl]-5H-pyrrolo[2,3-b]pyrazine-7-carboxylic acid ((S)-1,2,2-trimethyl-propyl)-amide] | 0.00032
6 | CCNC(=O)c1c[nH]c2ncc(Oc3ccc4c(c3)CCCC4)nc12 [Example I-260, 2-(5,6,7,8-Tetrahydro-naphthalen-2-yloxy)-5H-pyrrolo[2,3-b]pyrazine-7-carboxylic acid ethylamide] | 1.53
7 | CC(C)NC(=O)c1c[nH]c2ncc(Oc3ccc4cc[nH]c4c3)nc12 [Example I-272, 2-(1H-Indol-6-yloxy)-5H-pyrrolo[2,3-b]pyrazine-7-carboxylic acid isopropylamide] | 0.0293
8 | C[C@H](NC(=O)c1c[nH]c2ncc(-c3ccc(C(=O)N4CC(C(N)=O)C4)s3)nc12)C(C)(C)C [Example I-179, 2-[5-(3-Carbamoyl-azetidine-1-carbonyl)-thiophen-2-yl]-5H-pyrrolo[2,3-b]pyrazine-7-carboxylic acid ((S)-1,2,2-trimethyl-propyl)-amide] | 0.00032
9 | CCNC(=O)c1c[nH]c2ncc(Oc3cccc4ccccc34)nc12 [Example I-261, 2-(Naphthalen-1-yloxy)-5H-pyrrolo[2,3-b]pyrazine-7-carboxylic acid ethylamide] | 2.99
10 | C[C@H](NC(=O)c1c[nH]c2ncc(-c3ccc(C(=O)NCCS(N)(=O)=O)s3)nc12)C(C)(C)C [Example I-173, 2-[5-(2-Sulfamoyl-ethylcarbamoyl)-thiophen-2-yl]-5H-pyrrolo[2,3-b]pyrazine-7-carboxylic acid ((S)-1,2,2-trimethyl-propyl)-amide] | 0.0002
11 | Cc1ccc(-c2cnc3[nH]cc(C(=O)N[C@@H](C)C(C)(C)O)c3n2)cn1 [Example I-21, 2-(6-Methyl-pyridin-3-yl)-5H-pyrrolo[2,3-b]pyrazine-7-carboxylic acid ((S)-2-hydroxy-1,2-dimethyl-propyl)-amide] | 0.045
12 | C[C@H](NC(=O)c1c[nH]c2ncc(-c3ccc(C(=O)N4CCC(C#N)CC4)s3)nc12)C(C)(C)C [Example I-167, 2-[5-(4-Cyano-piperidine-1-carbonyl)-thiophen-2-yl]-5H-pyrrolo[2,3-b]pyrazine-7-carboxylic acid ((S)-1,2,2-trimethyl-propyl)-amide] | 0.00032
13 | C[C@@H](NC(=O)c1c[nH]c2ncc(Oc3ccccc3)nc12)C(C)(C)C [Example I-130, 2-Phenoxy-5H-pyrrolo[2,3-b]pyrazine-7-carboxylic acid ((R)-1,2,2-trimethyl-propyl)-amide] | 0.659
14 | CC(C)NC(=O)c1c[nH]c2ncc(Oc3ccc4ccccc4c3)nc12 [Example I-242, 2-(Naphthalen-2-yloxy)-5H-pyrrolo[2,3-b]pyrazine-7-carboxylic acid isopropylamide] | 1.18
15 | CC(Cn1ccnc1)NC(=O)c1ccc(-c2cnc3[nH]cc(C(=O)N[C@@H](C)C(C)(C)C)c3n2)s1 (stereo partly drawn) [Example I-174, 2-[5-(2-Imidazol-1-yl-1-methyl-ethylcarbamoyl)-thiophen-2-yl]-5H-pyrrolo[2,3-b]pyrazine-7-carboxylic acid ((S)-1,2,2-trimethyl-propyl)-amide] | 0.00022
16 | CC[C@@](C)(O)[C@@H](C)NC(=O)c1c[nH]c2ncc(C3CC3)nc12 [Example I-83, 2-Cyclopropyl-5H-pyrrolo[2,3-b]pyrazine-7-carboxylic acid ((1R,2R)-2-hydroxy-1,2-dimethyl-butyl)-amide] | 0.0473
17 | C[C@H](NC(=O)c1c[nH]c2ncc(-c3cn(-c4cccc(C(C)(C)C)c4)cn3)nc12)C(C)(C)C [Example I-153, 2-[1-(3-tert-Butyl-phenyl)-1H-imidazol-4-yl]-5H-pyrrolo[2,3-b]pyrazine-7-carboxylic acid ((S)-1,2,2-trimethyl-propyl)-amide] | 0.0754

Row | Compound | IC50 [µM]
18 | C[C@H](NC(=O)c1c[nH]c2ncc(C3CCCC3)nc12)C(C)(C)O [Example I-6, 2-Cyclopentyl-5H-pyrrolo[2,3-b]pyrazine-7-carboxylic acid ((S)-2-hydroxy-1,2-dimethyl-propyl)-amide] | 0.126
19 | C[C@H](NC(=O)c1c[nH]c2ncc(C3CC3)nc12)C1(C#N)CCCCC1 [Example I-118, 2-Cyclopropyl-5H-pyrrolo[2,3-b]pyrazine-7-carboxylic acid [(S)-1-(1-cyano-cyclohexyl)-ethyl]-amide] | 0.15
20 | C[C@H](NC(=O)c1c[nH]c2ncc(-c3ccc(C(=O)N4CCC(C(=O)O)CC4)s3)nc12)C(C)(C)C [Example I-182, 1-{5-[7-((S)-1,2,2-Trimethyl-propylcarbamoyl)-5H-pyrrolo[2,3-b]pyrazin-2-yl]-thiophene-2-carbonyl}-piperidine-4-carboxylic acid] | 0.00032
21 | CC(C)NC(=O)c1c[nH]c2ncc(Oc3ccccc3OC(F)(F)F)nc12 [Example I-253, 2-(2-Trifluoromethoxy-phenoxy)-5H-pyrrolo[2,3-b]pyrazine-7-carboxylic acid isopropylamide] | 2.17
22 | N#CCNC(=O)c1c[nH]c2ncc(C3CC3)nc12 [Example I-28, 2-Cyclopropyl-5H-pyrrolo[2,3-b]pyrazine-7-carboxylic acid cyanomethyl-amide] | 0.681
23 | C[C@H]1C[C@H]1c1cnc2[nH]cc(C(=O)NCC(C)(C)CO)c2n1 [Example I-46, 2-((1R,2S)-2-Methyl-cyclopropyl)-5H-pyrrolo[2,3-b]pyrazine-7-carboxylic acid (3-hydroxy-2,2-dimethyl-propyl)-amide] | 0.228
24 | C=C(C)c1cnc2[nH]cc(C(=O)N[C@@H](C)C(C)(C)O)c2n1 [Example I-3, 2-Isopropenyl-5H-pyrrolo[2,3-b]pyrazine-7-carboxylic acid ((S)-2-hydroxy-1,2-dimethyl-propyl)-amide] | 0.0122
25 | C[C@H](NC(=O)c1c[nH]c2ncc(-c3ccc(C(=O)NC4CCS(=O)(=O)CC4)s3)nc12)C(C)(C)C [Example I-212, 2-[5-(1,1-Dioxo-hexahydro-1λ^6-thiopyran-4-ylcarbamoyl)-thiophen-2-yl]-5H-pyrrolo[2,3-b]pyrazine-7-carboxylic acid ((S)-1,2,2-trimethyl-propyl)-amide] | 0.00016
26 | COCC(C)NC(=O)c1ccc(-c2cnc3[nH]cc(C(=O)N[C@@H](C)C(C)(C)C)c3n2)s1 (stereo partly drawn) [Example I-214, 2-[5-(2-Methoxy-1-methyl-ethylcarbamoyl)-thiophen-2-yl]-5H-pyrrolo[2,3-b]pyrazine-7-carboxylic acid ((S)-1,2,2-trimethyl-propyl)-amide] | 0.00028
27 | C[C@H](Cc1cnc[nH]1)NC(=O)c1ccc(-c2cnc3[nH]cc(C(=O)N[C@@H](C)C(C)(C)C)c3n2)s1 [Example I-199, 2-{5-[(R)-2-(3H-Imidazol-4-yl)-1-methyl-ethylcarbamoyl]-thiophen-2-yl}-5H-pyrrolo[2,3-b]pyrazine-7-carboxylic acid ((S)-1,2,2-trimethyl-propyl)-amide] | 0.00065
28 | C[C@H](NC(=O)c1c[nH]c2ncc(Oc3ccc(F)cc3F)nc12)C(C)(C)C [Example I-133, 2-(2,4-Difluoro-phenoxy)-5H-pyrrolo[2,3-b]pyrazine-7-carboxylic acid ((S)-1,2,2-trimethyl-propyl)-amide] | 0.154
29 | CCc1cccc(-n2cnc(-c3cnc4[nH]cc(C(=O)N[C@@H](C)C(C)(C)C)c4n3)c2)c1 [Example I-151, 2-[1-(3-Ethyl-phenyl)-1H-imidazol-4-yl]-5H-pyrrolo[2,3-b]pyrazine-7-carboxylic acid ((S)-1,2,2-trimethyl-propyl)-amide] | 0.0124
30 | CC(C)(CO)CNC(=O)c1c[nH]c2ncc(C(F)(F)F)nc12 [Example I-35, 2-Trifluoromethyl-5H-pyrrolo[2,3-b]pyrazine-7-carboxylic acid (3-hydroxy-2,2-dimethyl-propyl)-amide] | 1.04
31 | CC(NC(=O)c1c[nH]c2ncc(Oc3ccccc3F)nc12)C1CC1 (stereo not drawn) [Example I-114, 2-(2-Fluoro-phenoxy)-5H-pyrrolo[2,3-b]pyrazine-7-carboxylic acid (1-cyclopropyl-ethyl)-amide] | 0.0634
32 | C[C@H](NC(=O)c1c[nH]c2ncc(-c3ccccn3)nc12)C(C)(C)C [Example I-72, 2-Pyridin-2-yl-5H-pyrrolo[2,3-b]pyrazine-7-carboxylic acid ((S)-1,2,2-trimethyl-propyl)-amide] | 0.01
33 | CC(C)NC(=O)c1c[nH]c2ncc(Oc3ccc4c(c3)C(O)CC4)nc12 (stereo not drawn) [Example I-293, 2-(3-Hydroxy-indan-5-yloxy)-5H-pyrrolo[2,3-b]pyrazine-7-carboxylic acid isopropylamide] | 0.162
